The text below walks through data of publication PMC11632778, “Adaptive Synthesis, Supramolecular Behavior, and Biological Properties of Amphiphilic Carbosilane-Phosphonium Dendrons with Tunable Structure” (Biomacromolecules, 2024).

The nature of data set [1]: Dynamic light scattering (DLS/MADLS) of micelles in physiological solution. The class given is physicochemical. As for the experimental part:
The size of micelles and micellar aggregates was estimated by the dynamic light scattering (DLS) method using NanoBrook OMNI ZetaPALS (Brookhaven Instruments, USA) with a detection angle 90° and 640 nm laser. The presented diameters are mean values from the intensity-weighted size distribution. The composition of the samples was as follows: dendron (1.0 mM) and NaCl (0.9%) in deionized water. The solutions were sonicated for 30 min, filtered through 0.45 μm Nylon syringe filters (Avantor, USA), placed in standard polystyrene cuvettes (BI-SCP, Brookhaven Instruments), and stored at 4 °C. All measurements were conducted at 25 °C. Measurement time was set to 5 min, and each measurement was repeated 5 times. The analysis of data was performed using Brookhaven Instruments software Particle Solutions v3.6.07136.
MADLS and size dependence on concentration and pH were measured on Zetasizer Ultra Red (Malvern Panalytical, UK) equipped with a 632.8 nm laser, applying detection angles 12.78°, 90°, and 174.7° in the case of MADLS measurements and 12.78° for size dependence measurements. MADLS and concentration dependence were measured in DTS0012 polystyrene cuvettes (Malvern Panalytical, UK); pH dependence was studied by acidobasic titration in DTS1070 folded capillary Zeta cell, using MPT-3 Multipurpose Titrator and DEG0003 Auto Degasser (all Malvern Panalytical, UK). The concentration dependence measurement started at 1.0 mM and the samples were diluted 2-fold until the minimum concentration 0.06 mM. For each concentration, the measurement was repeated 3 times giving 15 measurements in total. The pH dependence measurement started at pH 12; the titration was performed with a step of 2 and at each step, the measurement was repeated 3 times, giving 18 measurements in total. Malvern Panalytical software ZS Xplorer version 3.3.1.5 was used for the analysis of data.

In data set [2] the test system is S. aureus MRSA—clinical isolate C1926. Description: Microdilution broth MIC. The class given is cell-based. Conditions: Staphylococcus aureus, 24 h. (In general: In broth dilution the organism is exposed to a series of concentrations in liquid medium.)
Data set [3] deals with E. coli K12, CCM 7929. Description: Microdilution broth MIC. The class given is cell-based. The settings on record: Escherichia coli, CCM7929, 24 h. As for the experimental part: (§1) In vitro antibacterial activity of the prepared amp-DDNs (DnP6-1C12, DnP3-1C12, DnP3-2C12, and DnP3-2C18) was tested on a panel of four G+ (Staphylococcus aureus CCM 4516, methicillin-resistant S. aureus clinical isolate C1923, Staphylococcus epidermidis clinical isolate C1936, and vancomycin-resistant Enterococcus faecium clinical isolate S2484) and four G-bacterial strains (Escherichia coli K12, CCM 7929, E. coli clinical isolate A1235, extended-spectrum β-lactamase-producing (ESBL+) Klebsiella pneumoniae clinical isolate C1914, and multiresistant Pseudomonas aeruginosa clinical isolate A1245). CCM collection strains were obtained from the Czech Collection of Microorganisms. All clinical isolates were obtained during routine procedures in the clinical laboratory at the University Hospital Hradec Králové. All strains were stored at −70 °C in the Cryobank according to the manufacturer’s instructions. Subsequently, when needed, each bacterial strain was inoculated and cultivated on Mueller–Hinton agar (HiMedia, Cadersky-Envitek, Prague, Czech Republic).
(§2) The antibacterial susceptibility was determined by a microdilution broth method according to standard M07-A10,[55] and the optimized protocol has been published previously.[56],[57] Briefly, Mueller–Hinton broth (MHB) adjusted to pH 7.4 (±0.2) was used as the test medium. […] The wells of the microdilution tray contained 200 μL of the MHB with 2-fold serial dilutions of the compounds and were inoculated with 10 μL of the bacterial suspension. The bacterial suspensions were controlled densitometrically to reach 1.5 × 10^8 viable CFU per 1 mL. The minimum inhibitory concentration (MIC) values, defined as 95% inhibition of bacterial growth, were determined after 24 h of incubation at 35 °C ± 1 °C.

Data set [4] has as its system E. coli—clinical isolate A1235. Description: Microdilution broth MIC. The settings on record: Escherichia coli, 24 h. The class given is cell-based. As for the experimental part:
as §1, §2

In data set [5] the test system is E. faecium VRE—clinical isolate S2484. The experiment in a line: Microdilution broth MIC. The class given is cell-based. The settings on record: Enterococcus faecium, 24 h. As for the experimental part: as §1, §2
The subject of data set [6] is K. pneumoniae ESBL+—clinical isolate C1914. The experiment in a line: Microdilution broth MIC. The class given is cell-based. Conditions: Klebsiella pneumoniae, 24 h. Here is the method:
as §1, §2

Data set [7] concerns P. aeruginosa MR—clinical isolate A1245. Description: Microdilution broth MIC. The class given is cell-based. The settings on record: Pseudomonas aeruginosa, 24 h. As for the experimental part: as §1, §2
The subject of data set [8] is S. aureus CCM 4516. The experiment in a line: Microdilution broth MIC. The settings on record: Staphylococcus aureus, CCM4516, 24 h. The class given is cell-based. As for the experimental part: as §1, §2
For data set [9], the system named is S. epidermidis—clinical isolate C1936. The experiment in a line: Microdilution broth MIC. The class given is cell-based. The settings on record: Staphylococcus epidermidis, 24 h. Here is the method:
as §1, §2

Data set [10] has as its system anti-miR-21 oligo(2′-O-methylribonucleotide). Description: DLS of dendriplexes with anti-miR-21 oligonucleotide. The settings on record: for mean diameter of dendriplex: 0.9% NaCl. The class given is physicochemical. As for the experimental part: Dendriplexes were characterized by DLS using Zetasizer Nano-S (Malvern Panalytical, UK) equipped with a 632.8 nm laser, applying detection angle 173°. Mean diameters from the intensity-weighted size distribution are given. Average results from three consecutive sets of measurements generated by Malvern Zetasizer Software version 7.13 are presented.
Amphiphilic dendrons (1.5–73 μM) were mixed with the anti-miR-21:5′-m([…]) (500 nM) in 0.9% NaCl solution in milli-Q water. The dendrons’ concentrations were chosen to attain the charge ratio (CR, the ratio of cations over anions in the sample) of 1.2, 2.5, 5, 10, or 20. The samples were incubated for 15 min at rt prior to measurements.

Details of data set [11]: method as in doi:10.1016/j.colsurfa.2004.10.066. The settings on record: standard cationic surfactant; cited from earlier work.

As to `CCCCCCCCCCCCCCCCCCNC(=O)c1cc(OCCC[Si](CCCSCC(=O)NCCC[P+](c2ccccc2)(c2ccccc2)c2ccccc2)(CCCSCC(=O)NCCC[P+](c2ccccc2)(c2ccccc2)c2ccccc2)CCCSCC(=O)NCCC[P+](c2ccccc2)(c2ccccc2)c2ccccc2)cc(C(=O)NCCCCCCCCCCCCCCCCCC)c1` [DnP3-2C18], the PDI entry in [1] (1.0 mM dendron, 0.9% NaCl) is “≈ 0.2”. For the same compound, the “mean size (DLS, intensity-weighted)” value came out at 14 nm in data set [1] (1.0 mM dendron, 0.9% NaCl, 25 °C, start of testing period) and 26 nm in [1] (1.0 mM dendron, 0.9% NaCl, after 75 day testing period, stored at 4 °C). In addition, the “mean size of the second population (MADLS)” value in data set [1] (aggregates) is recorded as 80 nm. Further, the “mean diameter of the smaller particles (MADLS)” value in [1] (isolated micelles) is 11.8 nm. In addition, the MIC in data set [2], in [3], in [4], in [5], in data set [6] and in data set [7] was greater than 12.5 µM in each case. For the same compound, the MIC in [8] and in [9] was greater than 12.5 µM in each case. For the same compound, the PI of dendriplex in data set [10] (CR 1.2) worked out at 0.12; in data set [10] (CR 2.5), 0.2; in [10] (CR 5), 0.3; in data set [10] (CR 10), 0.23; in data set [10] (CR 20) it was 0.29. Also, the “mean diameter of dendriplex” value in [10] (CR 1.2, anti-miR-21 500 nM) is 0.20 μm; in data set [10] (CR 2.5, anti-miR-21 500 nM) it was 0.9 μm; in data set [10] (CR 5, anti-miR-21 500 nM), greater than 1 μm; in data set [10] (CR 10, anti-miR-21 500 nM) it was 0.22 μm; in [10] (CR 20, anti-miR-21 500 nM), 0.17 μm.

For the compound `CCCCCCCCCCCCCCCC[N+](C)(C)C` [cetyltrimethylammonium bromide], the CMC entry in data set [11] was “around 1 mM”.
